Assay results: patent US12630600B2 (MEDIMMUNE LIMITED, priority 2022, dated 2026)
Starred links: 1 amine or outer side, 2 acyl side, 3 side chain; linkers in the order of their positions; H or OH if unused. Non-standard residues stand in square brackets, D forms with d. Residues, ends and D or L forms follow the SMILES beside them. Groups on a side chain read outwards from the residue. *: point of attachment. C20 diacid = O=C(O)CCCCCCCCCCCCCCCCCCC(=O)*; C18 diacid = O=C(O)CCCCCCCCCCCCCCCCC(=O)*; γGlu = O=C(O)[C@H](CCC(=O)[*:2])N[*:1]; αMeF = C[C@](N)(Cc1ccccc1)C(=O)O; PEG2 = NCCOCCOCCC(=O)O; AEEA = NCCOCCOCC(=O)O; Aib = CC(C)(N)C(=O)O

Biological target: T1, human GLP-1 receptor (hGLP-1R) (Homo sapiens, UniProt P43220)
T1 construct: expressed in transfected cells; host or cells: CHO
Experiment: cAMP production (HTRF) in CHO cells expressing human GLP-1 receptor
Format: cell-based
Settings: % GLP-1R activity relative to GLP-1 / % GlucR activity relative to glucagon
Method: Cells were re-suspended in assay buffer at a batch-dependent optimized concentration (typically hGLP-1R cells at 1×10^5 cells/mL, hGCGR cells at 2×10^5 cells/mL).
Cells were added to the assay plate using a multidrop dispenser and incubated at room temperature for 30 minutes before measuring the cAMP level using a cAMP dynamic 2 homogeneous time resolved Fluorescence (HTRF) kit (Cisbio Bioassays #62AM4PEJ) following the two-step protocol as per manufacturer's recommendations. In brief, anti-cAMP cryptate (donor fluorophore) and cAMP-d2 (acceptor fluorophore) were made up separately by diluting each 1 in 20 in conjugate and lysis buffer provided in the kit. Anti-cAMP cryptate was added to all wells of the assay plate, followed by cAMP-d2 added to all wells except non-specific binding (NSB) wells (to which conjugate and lysis buffer was added).
Data was transformed to % Delta F as described in the manufacturer's guidelines and analyzed by 4-parameter logistic fit to determine EC50 values.

T1 sequence (P43220 24-463): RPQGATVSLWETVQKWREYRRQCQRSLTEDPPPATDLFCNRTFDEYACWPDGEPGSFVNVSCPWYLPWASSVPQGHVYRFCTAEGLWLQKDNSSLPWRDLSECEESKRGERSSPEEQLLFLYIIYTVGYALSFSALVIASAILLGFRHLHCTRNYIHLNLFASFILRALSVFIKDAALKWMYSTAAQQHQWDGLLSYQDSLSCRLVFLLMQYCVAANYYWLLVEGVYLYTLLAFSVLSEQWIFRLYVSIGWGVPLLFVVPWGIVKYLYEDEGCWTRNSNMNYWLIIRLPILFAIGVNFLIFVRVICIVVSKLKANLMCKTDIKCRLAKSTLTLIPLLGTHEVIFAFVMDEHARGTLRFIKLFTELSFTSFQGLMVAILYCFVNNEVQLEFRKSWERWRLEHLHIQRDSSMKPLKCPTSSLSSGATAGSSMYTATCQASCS

Compound: CC[C@H](C)[C@H](NC(=O)[C@H](Cc1c[nH]c2ccccc12)NC(=O)[C@H](CCCCNC(=O)COCCOCCNC(=O)COCCOCCNC(=O)CC[C@H](NC(=O)CCCCCCCCCCCCCCCCCCC(=O)O)C(=O)O)NC(=O)[C@@H](NC(=O)[C@H](Cc1ccccc1)NC(=O)[C@H](CC(=O)O)NC(=O)[C@H](CCC(N)=O)NC(=O)[C@H](C)NC(=O)[C@H](C)NC(=O)[C@H](CCCNC(=N)N)NC(=O)[C@H](CO)NC(=O)[C@H](CC(=O)O)NC(=O)[C@H](CC(C)C)NC(=O)[C@](C)(Cc1ccccc1)NC(=O)[C@H](CCCCN)NC(=O)[C@H](CO)NC(=O)[C@@H](NC(=O)[C@H](CC(=O)O)NC(=O)[C@H](CO)NC(=O)[C@@H](NC(=O)[C@](C)(Cc1ccccc1)NC(=O)[C@H](CO)NC(=O)CNC(=O)[C@H](Cc1c[nH]cn1)NC(=O)C(C)(C)NC(=O)[C@@H](N)Cc1c[nH]cn1)[C@@H](C)O)C(C)C)C(C)C)C(=O)N[C@@H](C)C(=O)N[C@@H](CC(N)=O)C(=O)N[C@H](C(N)=O)[C@@H](C)O [Peptide 367] (H-H[Aib]HGS[αMeF]TSDVSK[αMeF]LDSRAAQDFVK([AEEA-AEEA-γGlu-C20 diacid])WIANT-NH2; N-terminus assumed)
- % Relative Potency Ratio (Table 8): 1.0

Compound: CC[C@H](C)[C@H](NC(=O)[C@H](Cc1c[nH]c2ccccc12)NC(=O)[C@H](CCCCNC(=O)COCCOCCNC(=O)COCCOCCNC(=O)CC[C@H](NC(=O)CCCCCCCCCCCCCCCCC(=O)O)C(=O)O)NC(=O)[C@@H](NC(=O)[C@H](Cc1ccccc1)NC(=O)[C@H](CC(=O)O)NC(=O)[C@H](CCC(N)=O)NC(=O)[C@H](C)NC(=O)[C@H](C)NC(=O)[C@H](CCC(N)=O)NC(=O)[C@H](CO)NC(=O)[C@H](CC(=O)O)NC(=O)[C@H](CC(C)C)NC(=O)[C@](C)(Cc1ccccc1)NC(=O)[C@H](CCCCN)NC(=O)[C@H](CO)NC(=O)[C@@H](NC(=O)[C@H](CC(=O)O)NC(=O)[C@H](CO)NC(=O)[C@@H](NC(=O)[C@](C)(Cc1ccccc1)NC(=O)[C@H](CO)NC(=O)CNC(=O)[C@H](Cc1c[nH]cn1)NC(=O)C(C)(C)NC(=O)[C@@H](N)Cc1c[nH]cn1)[C@@H](C)O)C(C)C)C(C)C)C(=O)N[C@@H](C)C(=O)N[C@@H](CC(N)=O)C(=O)N[C@H](C(=O)NCC(=O)NCC(N)=O)[C@@H](C)O [Peptide 350] (H-H[Aib]HGS[αMeF]TSDVSK[αMeF]LDSQAAQDFVK([AEEA-AEEA-γGlu-C18 diacid])WIANTGG-NH2; N-terminus assumed)
- % Relative Potency Ratio (Table 8): 8.6

Compound: HSQGS(αMePhe)TSDK((PEG)2-(PEG)2-γE-γE-Palmitoyl)10SK(Dip)LDS(ß-dimethylArg)AAQD(αMePhe)VE(Aib)LANT-amide [Peptide 394]
- % Relative Potency Ratio (Table 9): 7.3

Compound: H(Aib)HGS(αMePhe)TSDK(O2OC-O2OC-γE-γE-C20diacid)10SK(αMePhe)LDSRAAQD(αMePhe)VQ(Aib)IANT-amide [Peptide 391]
- % Relative Potency Ratio (Table 9): 49.1

Compound: CC[C@H](C)[C@H](NC(=O)[C@H](Cc1c[nH]c2ccccc12)NC(=O)[C@H](CCCCNC(=O)COCCOCCNC(=O)COCCOCCNC(=O)CC[C@H](NC(=O)CC[C@H](NC(=O)CCCCCCCCCCCCCCCCC(=O)O)C(=O)O)C(=O)O)NC(=O)[C@@H](NC(=O)[C@H](Cc1ccccc1)NC(=O)[C@H](CC(=O)O)NC(=O)[C@H](CCC(N)=O)NC(=O)[C@H](C)NC(=O)[C@H](C)NC(=O)[C@H](CCCNC(=N)N)NC(=O)[C@H](CO)NC(=O)[C@H](CC(=O)O)NC(=O)[C@H](CC(C)C)NC(=O)[C@](C)(Cc1ccccc1)NC(=O)[C@H](CCCCN)NC(=O)[C@H](CO)NC(=O)[C@@H](NC(=O)[C@H](CC(=O)O)NC(=O)[C@H](CO)NC(=O)[C@@H](NC(=O)[C@](C)(Cc1ccccc1)NC(=O)[C@H](CO)NC(=O)CNC(=O)[C@H](Cc1c[nH]cn1)NC(=O)C(C)(C)NC(=O)[C@@H](N)Cc1c[nH]cn1)[C@@H](C)O)C(C)C)C(C)C)C(=O)N[C@@H](C)C(=O)N[C@@H](CC(N)=O)C(=O)N[C@H](C(=O)NCC(N)=O)[C@@H](C)O [Peptide 363] (H-H[Aib]HGS[αMeF]TSDVSK[αMeF]LDSRAAQDFVK([AEEA-AEEA-γGlu-γGlu-C18 diacid])WIANTG-NH2; N-terminus assumed)
- % Relative Potency Ratio (Table 8): 5.1

Compound: CC[C@H](C)[C@H](NC(=O)[C@H](Cc1c[nH]c2ccccc12)NC(=O)[C@H](CCCCNC(=O)CCOCCOCCNC(=O)CCOCCOCCNC(=O)CC[C@H](NC(=O)CC[C@H](NC(=O)CCCCCCCCCCCCCCCCCCC(=O)O)C(=O)O)C(=O)O)NC(=O)[C@@H](NC(=O)[C@H](Cc1ccccc1)NC(=O)[C@H](CC(=O)O)NC(=O)[C@H](CCC(N)=O)NC(=O)[C@H](C)NC(=O)[C@H](C)NC(=O)[C@H](CCC(N)=O)NC(=O)[C@H](CO)NC(=O)[C@H](CC(=O)O)NC(=O)[C@H](CC(C)C)NC(=O)[C@](C)(Cc1ccccc1)NC(=O)[C@H](CCCCN)NC(=O)[C@H](CO)NC(=O)[C@@H](NC(=O)[C@H](CC(=O)O)NC(=O)[C@H](CO)NC(=O)[C@@H](NC(=O)[C@](C)(Cc1ccccc1)NC(=O)[C@H](CO)NC(=O)CNC(=O)[C@H](Cc1c[nH]cn1)NC(=O)C(C)(C)NC(=O)[C@@H](N)Cc1c[nH]cn1)[C@@H](C)O)C(C)C)C(C)C)C(=O)N[C@@H](C)C(=O)N[C@@H](CC(N)=O)C(=O)N[C@H](C(N)=O)[C@@H](C)O [Peptide 355] (H-H[Aib]HGS[αMeF]TSDVSK[αMeF]LDSQAAQDFVK([PEG2-PEG2-γGlu-γGlu-C20 diacid])WIANT-NH2; N-terminus assumed)
- % Relative Potency Ratio (Table 8): 2.2

Compound: CC[C@H](C)[C@H](NC(=O)[C@H](Cc1c[nH]c2ccccc12)NC(=O)[C@H](CCCCNC(=O)CC[C@H](NC(=O)CCCCCCCCCCCCCCCCC(=O)O)C(=O)O)NC(=O)[C@@H](NC(=O)[C@H](Cc1ccccc1)NC(=O)[C@H](CC(=O)O)NC(=O)[C@H](CCC(N)=O)NC(=O)[C@H](C)NC(=O)[C@H](C)NC(=O)[C@H](CCC(N)=O)NC(=O)[C@H](CO)NC(=O)[C@H](CC(=O)O)NC(=O)[C@H](CC(C)C)NC(=O)[C@](C)(Cc1ccccc1)NC(=O)[C@H](CCCCN)NC(=O)[C@H](CO)NC(=O)[C@@H](NC(=O)[C@H](CC(=O)O)NC(=O)[C@H](CO)NC(=O)[C@@H](NC(=O)[C@](C)(Cc1ccccc1)NC(=O)[C@H](CO)NC(=O)CNC(=O)[C@H](Cc1c[nH]cn1)NC(=O)C(C)(C)NC(=O)[C@@H](N)Cc1c[nH]cn1)[C@@H](C)O)C(C)C)C(C)C)C(=O)N[C@@H](C)C(=O)N[C@@H](CC(N)=O)C(=O)N[C@H](C(N)=O)[C@@H](C)O [Peptide 351] (H-H[Aib]HGS[αMeF]TSDVSK[αMeF]LDSQAAQDFVK([γGlu-C18 diacid])WIANT-NH2)
- % Relative Potency Ratio (Table 8): 0.7

Compound: CC[C@H](C)[C@H](NC(=O)[C@H](Cc1c[nH]c2ccccc12)NC(=O)[C@H](CCCCNC(=O)COCCOCCNC(=O)COCCOCCNC(=O)CC[C@H](NC(=O)CCCCCCCCCCCCCCCCC(=O)O)C(=O)O)NC(=O)[C@@H](NC(=O)[C@H](Cc1ccccc1)NC(=O)[C@H](CC(=O)O)NC(=O)[C@H](CCC(N)=O)NC(=O)[C@H](C)NC(=O)[C@H](C)NC(=O)[C@H](CCC(N)=O)NC(=O)[C@H](CO)NC(=O)[C@H](CC(=O)O)NC(=O)[C@H](CC(C)C)NC(=O)[C@](C)(Cc1ccccc1)NC(=O)[C@H](CCCCN)NC(=O)[C@H](CO)NC(=O)[C@@H](NC(=O)[C@H](CC(=O)O)NC(=O)[C@H](CO)NC(=O)[C@@H](NC(=O)[C@](C)(Cc1ccccc1)NC(=O)[C@H](CO)NC(=O)CNC(=O)[C@@H](NC(=O)C(C)(C)NC(=O)[C@@H](N)Cc1c[nH]cn1)[C@@H](C)CC)[C@@H](C)O)C(C)C)C(C)C)C(=O)N[C@@H](C)C(=O)N[C@@H](CC(N)=O)C(=O)N[C@H](C(N)=O)[C@@H](C)O [Peptide 358] (H-H[Aib]IGS[αMeF]TSDVSK[αMeF]LDSQAAQDFVK([AEEA-AEEA-γGlu-C18 diacid])WIANT-NH2; N-terminus assumed)
- % Relative Potency Ratio (Table 8): 424.1

Compound: CC(C)C[C@H](NC(=O)[C@H](Cc1c[nH]c2ccccc12)NC(=O)[C@H](CCC(N)=O)NC(=O)[C@@H](NC(=O)[C@H](Cc1ccccc1)NC(=O)[C@H](CC(=O)O)NC(=O)[C@H](CCCNC(=N)N)NC(=O)[C@H](C)NC(=O)[C@H](CCCNC(=N)N)NC(=O)[C@H](CCCCNC(=O)COCCOCCNC(=O)COCCOCCNC(=O)CC[C@H](NC(=O)CCCCCCCCCCCCCCCCC(=O)O)C(=O)O)NC(=O)[C@@H](NC(=O)[C@H](CCC(=O)O)NC(=O)[C@H](CC(C)C)NC(=O)[C@](C)(Cc1ccccc1)NC(=O)[C@H](CCCCN)NC(=O)[C@H](CO)NC(=O)[C@@H](NC(=O)[C@H](CC(=O)O)NC(=O)[C@H](CO)NC(=O)[C@@H](NC(=O)[C@H](Cc1ccccc1)NC(=O)[C@@H](NC(=O)CNC(=O)[C@H](CCC(N)=O)NC(=O)C(C)(C)NC(=O)[C@@H](N)Cc1c[nH]cn1)[C@@H](C)O)[C@@H](C)O)C(C)C)[C@@H](C)O)C(C)C)C(=O)N[C@@H](CC(C)C)C(=O)N[C@@H](CCC(=O)O)C(=O)NC(C)(C)C(=O)NCC(=O)O [Peptide 445] (H-H[Aib]QGTFTSDVSK[αMeF]LETK([AEEA-AEEA-γGlu-C18 diacid])RARDFVQWLLE[Aib]G-OH; N-terminus assumed)
- % Relative Potency Ratio (Table 6): 41.0
